Read-outs that look alike come from different tables or passages of the source.
Columns and labels:
jack bean urease = jack bean urease (Canavalia ensiformis, UniProt P07374); assay: biochemical; type: biochemical; details: for % Inhibition (urease): value in parentheses beside IC50; for urease inhibition (in words): qualitative statement
Method: Briefly, DMSO was used to dissolve the synthesized conjugates (inhibitors, 250–0.49 µM) and the reference urease inhibitor (thiourea). Each falcon tube contained the respective inhibitor (20 µL), buffer (K2HPO4, 100 µL, 50 mM, pH = 6.8), and jack bean urease (20 µL); each tube was mixed well; and the mixtures were incubated for 30 min at 37 °C. Each tube received 400 µL of urea (20 mM) as a substrate, which was then incubated for 10 min at the same temperature. Afterward, each tube received 400 µL of phenol reagent and 750 µL of alkali reagent containing 0.1% active chlorine and was left at 37 °C for 50 min. Following the use of a spectrophotometer (Labdex, LX210DS, London, UK) to measure absorbance of the mixture in each tube at 595 nm, Equation (1) below was used to compute the percentage of urease inhibition: (1) % Urease inhibition=1−T/C×100 where, T and C are the absorbance of each well containing inhibitor and blank, respectively. The results are presented as mean ± SEM. Using a regression equation where 50% inhibition was seen, the IC50 values of each inhibitor were determined.

urease = urease (Canavalia ensiformis, UniProt P07374); assay: biochemical; type: biochemical, jack bean; details: for Mode of Inhibition: Lineweaver–Burk plot, inhibitor 0–20 µM, urea 0.5–4.0 mM; for Vmax (app): intercept, the maximum rate at 20 µM of inhibitor concentration
Sequence of urease (P07374 whole entry, looked up): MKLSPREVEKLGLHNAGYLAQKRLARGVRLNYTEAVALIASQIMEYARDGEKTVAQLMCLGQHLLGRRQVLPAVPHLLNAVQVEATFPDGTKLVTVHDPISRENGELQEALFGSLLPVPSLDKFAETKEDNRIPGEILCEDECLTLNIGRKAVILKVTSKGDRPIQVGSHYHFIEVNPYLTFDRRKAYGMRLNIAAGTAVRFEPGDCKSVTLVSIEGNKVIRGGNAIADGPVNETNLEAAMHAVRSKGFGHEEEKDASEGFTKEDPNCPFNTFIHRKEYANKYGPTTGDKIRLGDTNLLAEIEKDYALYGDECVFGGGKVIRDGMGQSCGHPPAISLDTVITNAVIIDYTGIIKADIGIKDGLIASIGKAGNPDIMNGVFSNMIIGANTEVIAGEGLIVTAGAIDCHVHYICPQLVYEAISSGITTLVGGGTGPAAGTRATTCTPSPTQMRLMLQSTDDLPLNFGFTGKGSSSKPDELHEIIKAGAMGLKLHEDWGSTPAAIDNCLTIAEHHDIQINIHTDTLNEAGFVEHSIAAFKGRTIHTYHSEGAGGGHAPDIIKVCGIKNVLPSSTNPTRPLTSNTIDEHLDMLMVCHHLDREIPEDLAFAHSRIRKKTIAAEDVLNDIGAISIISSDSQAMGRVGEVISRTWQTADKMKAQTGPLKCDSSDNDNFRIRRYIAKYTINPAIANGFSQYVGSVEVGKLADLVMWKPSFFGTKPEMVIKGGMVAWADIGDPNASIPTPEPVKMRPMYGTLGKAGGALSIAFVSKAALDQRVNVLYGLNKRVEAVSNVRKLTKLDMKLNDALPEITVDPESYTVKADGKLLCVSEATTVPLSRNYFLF
Method: The kinetics studies were performed by using five different concentrations (0.0, 5.0, 10.0, 15.0, and 20.0 µM) of each conjugate while using four different concentrations of urea (0.5, 1.0, 2.0, and 4.0) as substrate.
The Lineweaver–Burk plot is a powerful tool for analyzing enzyme kinetics and determining the mode of inhibition of an enzyme by a particular conjugate. […] In a Lineweaver–Burk plot, competitive inhibition is characterized by a change in the slope of the line (Km, also called the Michaelis constant), whereas the intercept remains the same (Vmax, the maximum rate). […] The inhibition constant (Ki) value of each conjugate was also calculated by plotting the slope of each line vs. different concentrations of each conjugate, also called secondary Lineweaver–Burk plots.
When there is mixed-type inhibition, the enzyme–substrate complex is bound by the inhibitor molecule, which prevents the reaction from happening, and increasing the substrate concentration will not remove this kind of inhibition. In a Lineweaver–Burk plot, mixed-type inhibition is characterized by a change in both the slope (Km) and the intercept of the line (Vmax).
With a few minor modifications, the urease inhibition experiment was carried out as described in our past research [3, 4, 5]. Briefly, DMSO was used to dissolve the synthesized conjugates (inhibitors, 250–0.49 µM) and the reference urease inhibitor (thiourea). Each falcon tube contained the respective inhibitor (20 µL), buffer (K2HPO4, 100 µL, 50 mM, pH = 6.8), and jack bean urease (20 µL); each tube was mixed well; and the mixtures were incubated for 30 min at 37 °C. Each tube received 400 µL of urea (20 mM) as a substrate, which was then incubated for 10 min at the same temperature. Afterward, each tube received 400 µL of phenol reagent and 750 µL of alkali reagent containing 0.1% active chlorine and was left at 37 °C for 50 min. Following the use of a spectrophotometer (Labdex, LX210DS, London, UK) to measure absorbance of the mixture in each tube at 595 nm, Equation (1) below was used to compute the percentage of urease inhibition: (1) % Urease inhibition=1−T/C×100 where, T and C are the absorbance of each well containing inhibitor and blank, respectively. The results are presented as mean ± SEM. Using a regression equation where 50% inhibition was seen, the IC50 values of each inhibitor were determined. Each inhibitor’s binding mechanism was tested at various doses (0–20 µM) for kinetics investigations. Urea was used as a substrate in different concentrations (0.5–4.0 mM) to determine the mode of inhibition of the inhibitors, including whether they acted as uncompetitive, mixed (non-competitive), or competitive. GraphPad PRISM 7.0 was used to create Lineweaver–Burk plots, which were then used to calculate the values of Km (app), Vmax (app), and Ki (inhibition constant).

Sequence of jack bean urease (P07374 whole entry, looked up): as above

Compound	IC50 (jack bean urease) [µM]	% Inhibition (urease) (jack bean urease; jack bean urease) [%]	urease inhibition (in words) (jack bean urease)	melting point [°C]	Ki (urease) [µM]	Mode of Inhibition (urease)	Vmax (app) (urease) [µM/min]	IC50 (jack bean urease; jack bean urease, urea substrate, pH 6.8, 37 °C, mean ± SEM, read-out: IC50 (µM), Mean ± SEM) [µM]	Ki (urease; from secondary Lineweaver–Burk plots, read-out: Ki (inhibition constant)) [µM]	Km (urease; slope of the line (Michaelis constant) at 20 µM of inhibitor concentration, read-out: Km (app)) [µM]
CC(C)Cc1ccc(C(C)C(=O)Nc2ccc(S(=O)(=O)NC(=N)N)cc2)cc1 (stereo not drawn) [Conjugate 11, N-(4-(N-Carbamimidoylsulfamoyl)phenyl)-2-(4-isobutylphenyl)propanamide]	44.5 ± 1.41	78.7	moderate inhibition	138 to 139	–	–	–	–	–	–
CC(C(=O)Nc1ccc(S(=O)(=O)NC(=N)N)cc1)c1ccc(-c2ccccc2)c(F)c1 (stereo not drawn) [Conjugate 19, N-(4-(N-Carbamimidoylsulfamoyl)phenyl)-2-(2-fluoro-[1,1′-biphenyl]-4-yl)propanamide]	33.83 ± 0.18	83.8	–	163 to 165	–	–	–	–	–	–
Cc1noc(NS(=O)(=O)c2ccc(NC(=O)C(C)c3ccc(CC(C)C)cc3)cc2)c1C (stereo not drawn) [Conjugate 5, N-(4-(N-(3,4-Dimethylisoxazol-5-yl)sulfamoyl)phenyl)-2-(4-isobutylphenyl)propanamide]	23.3 ± 0.41	84.0	–	–	–	–	–	–	–	–
CC(C(=O)Nc1ccc(S(N)(=O)=O)cc1)c1ccc(-c2ccccc2)c(F)c1 (stereo not drawn) [Conjugate 12, 2-(2-Fluoro-[1,1′-biphenyl]-4-yl)-N-(4-sulfamoylphenyl)propanamide]	24.92 ± 0.24	82.1	–	147 to 150	–	–	–	–	–	–
CC(C)Cc1ccc(C(C)C(=O)Nc2ccc(S(=O)(=O)Nc3ncccn3)cc2)cc1 (stereo not drawn) [Conjugate 7, 2-(4-Isobutylphenyl)-N-(4-(N-(pyrimidin-2-yl)sulfamoyl)phenyl)propanamide]	50.2 ± 1.24	71.6	moderate inhibition	171 to 173	–	–	–	–	–	–
Cc1cc(NS(=O)(=O)c2ccc(NC(=O)C(C)c3ccc(CC(C)C)cc3)cc2)no1 (stereo not drawn) [Conjugate 9, 2-(4-Isobutylphenyl)-N-(4-(N-(5-methylisoxazol-3-yl)sulfamoyl)phenyl)propanamide]	39.9 ± 1.17	76.7	moderate inhibition	–	–	–	–	–	–	–
CC(C(=O)Nc1ccc(S(=O)(=O)Nc2ncccn2)cc1)c1ccc(-c2ccccc2)c(F)c1 (stereo not drawn) [Conjugate 15, 2-(2-Fluoro-[1,1′-biphenyl]-4-yl)-N-(4-(N-(pyrimidin-2-yl)sulfamoyl)phenyl)propanamide]	16.7 ± 0.23	84.1	–	155 to 158	7.95	Competitive	1.89	–	–	–
Cc1noc(NS(=O)(=O)c2ccc(NC(=O)C(C)c3ccc(-c4ccccc4)c(F)c3)cc2)c1C (stereo not drawn) [Conjugate 13, N-(4-(N-(3,4-Dimethylisoxazol-5-yl)sulfamoyl)phenyl)-2-(2-fluoro-[1,1′-biphenyl]-4-yl)propanamide]	35.3 ± 0.21	84.6	–	128 to 130	–	–	–	–	–	–
Cc1ccnc(NS(=O)(=O)c2ccc(NC(=O)C(C)c3ccc(-c4ccccc4)c(F)c3)cc2)n1 (stereo not drawn) [Conjugate 16, 2-(2-Fluoro-[1,1′-biphenyl]-4-yl)-N-(4-(N-(4-methylpyrimidin-2-yl)sulfamoyl)phenyl)propanamide]	17.5 ± 0.76	86.1	–	–	1.3	Mixed	1.01	–	–	–
NC(N)=S [Thiourea, reference compound]	–	92.3	–	–	–	Competitive	18.61	22.6 ± 0.23	18.2	2180
CC(=O)NS(=O)(=O)c1ccc(NC(=O)C(C)c2ccc(-c3ccccc3)c(F)c2)cc1 (stereo not drawn) [Conjugate 18, N-(4-(N-Acetylsulfamoyl)phenyl)-2-(2-fluoro-[1,1′-biphenyl]-4-yl)propanamide]	14.8 ± 0.16	87.1	–	187 to 190	4.11	Mixed	1.02	–	–	–
Cc1ccnc(NS(=O)(=O)c2ccc(NC(=O)C(C)c3ccc(CC(C)C)cc3)cc2)n1 (stereo not drawn) [Conjugate 8, 2-(4-Isobutylphenyl)-N-(4-(N-(4-methylpyrimidin-2yl)sulfamoyl)phenyl)propanamide]	12.4 ± 0.54	87.7	–	152 to 154	3.01	Mixed	3.0	–	–	–
CC(C)Cc1ccc(C(C)C(=O)Nc2ccc(S(N)(=O)=O)cc2)cc1 (stereo not drawn) [Conjugate 4, 2-(4-Isobutylphenyl)-N-(4-sulfamoylphenyl)propanamide]	14.26 ± 0.14	84.2	–	147 to 150	8.2	Mixed	3.64	–	–	–
Cc1cc(NS(=O)(=O)c2ccc(NC(=O)C(C)c3ccc(-c4ccccc4)c(F)c3)cc2)no1 (stereo not drawn) [Conjugate 17, 2-(2-Fluoro-[1,1′-biphenyl]-4-yl)-N-(4-(N-(5-methylisoxazol-3-yl)sulfamoyl)phenyl)propanamide]	13.39 ± 0.11	86.1	–	–	10.4	Competitive	1.56	–	–	–
CC(=O)NS(=O)(=O)c1ccc(NC(=O)C(C)c2ccc(CC(C)C)cc2)cc1 (stereo not drawn) [Conjugate 10, N-(4-(N-Acetylsulfamoyl)phenyl)-2-(4-isobutylphenyl)propanamide]	10.3 ± 0.11	88.9	–	152 to 155	2.62	Mixed	1.04	–	–	–
CC(C)Cc1ccc(C(C)C(=O)Nc2ccc(S(=O)(=O)Nc3nccs3)cc2)cc1 (stereo not drawn) [Conjugate 6, 2-(4-Isobutylphenyl)-N-(4-(N-(thiazol-2-yl)sulfamoyl)phenyl)propanamide]	9.95 ± 0.14	90.6	–	184 to 185	0.17	Competitive	1.39	–	–	–
CC(C(=O)Nc1ccc(S(=O)(=O)Nc2nccs2)cc1)c1ccc(-c2ccccc2)c(F)c1 (stereo not drawn) [Conjugate 14, 2-(2-Fluoro-[1,1′-biphenyl]-4-yl)-N-(4-(N-(thiazol-2-yl)sulfamoyl)phenyl)propanamide]	63.4 ± 1.15	60.4	moderate inhibition	137 to 140	–	–	–	–	–	–

— article PMC10386649, “New Acetamide-Sulfonamide-Containing Scaffolds: Antiurease Activity Screening, Structure-Activity Relationship, Kinetics Mechanism, Molecular Docking, and MD Simulation Studies” (Molecules, 2023)
